Reference: patent publication US8709764B2, “Enzymatic demethylation of flavonoids” (Universiteit Gent, priority 2005, dated 2014)
Several values for one entry are separate records, joined by “and”; a condition that tells them apart may be missing. Identical values can stand only once.

Assays:
human fecal cultures = test: Incubation of IX with human fecal cultures (E-L; 51 fecal samples) for 3 days; assay type: in vitro ADME
Description: Fecal slurries of 20% (w/v) fresh fecal samples were prepared by homogenizing the feces with phosphate buffered saline (0.1 M, pH 7) containing 1 g/l sodiumthioglycolate as reducing agent. The particulate material was removed by centrifugation (1 min, 500×g). The supernatant is hereafter called “the culture”.
But not all cultures were able to perform this reaction. Therefore, the remaining cultures E-L (10% (v/v)) were incubated for 3 days in Brain Heart Infusion broth (with 0.5 g/l cystein-HCl) under anaerobic conditions with 25 mg/l IX (FIG. 4).
To further investigate these inter-individual differences, a total of 51 fecal samples were incubated for 3 days in Brain Heart Infusion broth (with 0.5 g/l cystein-HCl) under anaerobic conditions, containing 25 mg/l IX (FIG. 5). The results are presented as % 8-PN production relative to the incubated IX concentration and samples were ordered by increasing 8-PN production capacity.

E. limosum = test: Selection of 8-PN producing E. limosum by repeated incubations with IX; assay type: in vitro ADME, Eubacterium limosum; settings: 6 parallel incubations, 25 mg/l IX, 8 days
Description: Because of the capacity of E. limosum to transform IX into 8-PN, a selection procedure was performed to obtain a strain, capable to quantitatively produce 8-PN. The selection procedure consisted of 6 parallel incubations of E. limosum [cultures from single colonies] with 25 mg/l IX and incubation for 8 days. Next, the culture which produced the highest amount of 8-PN was selected and used as inoculum for the next round of 6 parallel incubations (Table 3). […] This means that, after only three rounds, a strain was selected which converted almost all IX (high mean) and was also stable (low standard deviation).

[1] = tested on: selected strain Eubacterium limosum; test: Fed batch fermentation of IX with selected Eubacterium limosum strain; assay type: in vitro ADME; settings: fermentor effluent
Description: A fed batch fermentation experiment was designed to use a selected strain Eubacterium limosum as obtained above, to convert methylated prenylflavonoids in a fermentation setting. Fermentation was performed in a Braun Biostat® M fermentor (2 l vessel), filled with 1.5 L Brain Heart Infusion broth (with 0.5 g/l cystein-HCl). Subsequently, the fermentor was sterilized by autoclaving it for 30 min at 121° C. Before inoculation, the fermentor was made anaerobic by flushing the system for 1 h with nitrogen gas. After this, the fermentor was inoculated with a 2-days old E. limosum culture and 25 mg/L IX was added to the fermentation liquid. The fermentation was performed at 37° C. for 2 weeks, without pH control. From day 1 on, three times/day 200 ml anaerobic Brain Heart Infusion broth (with 0.5 g/l cystein-HCl), containing 25 mg/L IX was dosed to the reactor at 10 ml/min and simultaneously […] fermentor content was removed from the system. A 10 ml sample was taken from the effluent, for chemical analysis. This was done at day 0, 1, 2 and afterwards every 2 days. Data were as % conversion (8-PN/(IX+8-PN)). A conversion of 0% (day 0), 43% (day 1) and 100% (day 2 and following days), of IX into 8-PN was obtained.

[2] = tested on: fecal culture B supplemented with E. limosum; test: Supplementation of selected E. limosum strain to non-converting fecal culture B incubated with IX; assay type: in vitro ADME, human
Description: The most efficient E. limosum strain, obtained from the selection experiment in example 2, was supplemented to the originally non-converting culture B of example 1, to examine the capacity of this strain to initiate the production of 8-PN in the complex environment of a fecal suspension. The strain was added to the culture in proportions ranging from 0% up to 100% (v/v). This mixture was incubated with 10% (v/v) of 25 mg/L IX for a period of seven days in Brain Heart Infusion broth (with 0.5 g/l cystein-HCl) under anaerobic conditions. The concentration of 8-PN was monitored every two days (FIG. 7).

[3] = tested on: intestinal microbial communities PF+ and PF−; test: Simulator of the Human Intestinal Microbial Ecosystem (SHIME) dosed with IX; assay type: in vitro ADME
Text: The SHIME consists of a succession of five reactors that represent the different parts of the human gastrointestinal tract. The first two reactors (stomach [reactor 1] and small intestine [reactor 2]) are of the fill-and-draw principle to simulate different steps in food uptake and digestion, with peristaltic pumps adding a defined amount of SHIME feed (3 times/day) and pancreatic and bile liquid to the stomach and duodenum compartment and emptying the respective reactors after specified intervals. The last three compartments (resp. ascending [reactor 3], transverse [reactor 4] and descending colon [reactor 5]) are continuously stirred reactors with constant volume and pH control. Retention time and pH of the different vessels were chosen in order to resemble in vivo conditions in the different parts of the gastrointestinal tract. The passage of food in the small intestine was simulated in reactor 2 by the addition of 60 ml artificial pancreatic and bile liquid, pancreatin and NaHCO3. The temperature of the system was kept at 37° C. by a thermostat and the system was kept anaerobic by flushing it with N2 for 15 min every day. Inoculum was prepared from faecal matter as described in De Boever et al. (2000) J. Nutrition 130, 2599-2606. Reactor 3, 4, and 5 were filled with nutritional medium and pH was adjusted to the respective pH range. Finally, 50 ml inoculum was added to the last three reactors.
For the present experiment, two of the above described systems were combined as two completely separate reactors, which are driven by the same pumps (pumps with two pump heads, allowing to dose exactly the same amounts of liquids to both systems), have identical pH and temperature control and which receive the same liquid food. This way, all parameters are perfectly controlled and identical, except for the intestinal microbial communities in the 2 systems which can be introduced separately. In this case we introduced a community which was capable to activate methylated prenylflavonoids (PF+) and one which could not (PF−). After a two-week stabilization period in which normal SHIME feed was dosed, 25 mg/L IX was dosed to the SHIME feed for 4 weeks (day 15-44). In the last two weeks the selected Eubacterium limosum strain of example 2, was also administered to the first colon compartment, to simulate the application of the strain as a probiotic (day 30-44).

Structure (SMILES): COc1cc(O)c(CC=C(C)C)c2c1C(=O)C[C@@H](c1ccc(O)cc1)O2 [IX, 5-O-methyl-8-prenylnaringenin]
- Microbial O-demethylation of IX (human fecal cultures; fecal cultures E-L, 25 mg/l IX, 3 days anaerobic): only detected in samples E, J and K
- Share of tested fecal samples in which activation of IX occurred (human fecal cultures; fecal samples A-L): only a third of the tested samples
- Molar % IX to 8-PN conversion, Highest (E. limosum; selection round I): 46.5%
- Molar % IX to 8-PN conversion, Lowest (E. limosum; selection round I): 2% and 2.1%
- Molar % IX to 8-PN conversion, Mean (stdev) (E. limosum; selection round I): 22.5% and 22.5 (19.3) %
- Molar % IX to 8-PN conversion, Highest (E. limosum; selection round II): 79.4%
- Molar % IX to 8-PN conversion, Lowest (E. limosum; selection round II): 24.3%
- Molar % IX to 8-PN conversion, Mean (stdev) (E. limosum; selection round II): 57.9 (19.6) %
- Molar % IX to 8-PN conversion, Lowest (E. limosum; selection round III): 82% and 82.1%
- Molar % IX to 8-PN conversion, Mean (stdev) (E. limosum; selection round III): 90.5% and 90.5 (6.9) %
- % conversion (8-PN/(IX+8-PN)) ([1]; day 0): 0%
- % conversion (8-PN/(IX+8-PN)) ([1]; day 1): 43%
- % conversion (8-PN/(IX+8-PN)) ([1]; day 2 and following days): 100%
- Conversion of IX into 8-PN ([2]; 1% supplementation of E. limosum, after one day): half of the dosed IX was already transformed into 8-PN
- Conversion of IX into 8-PN ([2]; equal amount of E. limosum culture and fecal sample (100% in FIG. 7)): complete conversion of IX into 8-PN
- Conversion of IX into 8-PN ([3]; PF+ compartment, after supplementing the E. limosum strain (from day 30)): the activation potential increased
- Conversion of IX into 8-PN ([3]; PF+ compartment, only IX administered (day 15-30)): activation of methoxylated prenylflavonoids was noted in the distal colon parts
- Conversion of IX into 8-PN ([3]; PF− compartment, after supplementing the E. limosum strain (from day 30)): production of the estrogenically active 8-PN was detected in the distal colon part
- Conversion of IX into 8-PN ([3]; PF− compartment, only IX administered (day 15-30)): no conversion occurred
